How the values were obtained:
[1] = tested on: NSCs; experiment: Cell viability of NSCs (CCK-8, MTT, LDH); type: cell-based, rat; settings: 48 hours
Procedure: NSCs were isolated from the brain of a rat embryo, cultured and developed. The NSC culture was performed in the same manner as to be described below. Briefly describing, a rat embryo was obtained on day 13 of the embryonic period, and the brain was quickly removed and placed in a petri dish containing cold phosphate-buffered physiological saline (Hank's balanced salt solution; HBSS).
Single cells were isolated from the cerebral cortex, the lateral ganglion eminence, and the embryonic midbrain. These cells were put into a dish pre-treated with L-ornithine and fibronectin, containing calcium and magnesium-free phosphate-buffered physiological saline (PBS) at a density of 20,000 cells/cm^2. In addition, the cells were cultured in an N2 medium (DMEM F/12, […] insulin, 100 mg/L transferrin, 30 nM selenite, […], 20 nM progesterone, 0.2 mM ascorbic acid, […], 8.6 mM D(+) glucose, and […]). The culture was maintained in humidified and 5% CO2 conditions for 4 to 6 days at 37° C.
NSCs were divided into 6 samples, and each sample was treated with […] Aβ25-30 oligomers for 48 hours to identify a suitable concentration. […] Briefly, Aβ25-30 was dissolved in hexafluoroisopropanol to reach a concentration of 1 mM. In addition, the prepared solution was dispensed using a sterilized ultramicrocentrifuge tube. […]
To identify the PEP1 effect in NSCs, PEP1 was treated at various concentrations of 0, 1, 10, 50, 100, and 200 μM for 48 hours. […] The plate was gently washed with PBS several times, and cell viability was measured using a cell counting kit-8 (CCK-8), MTT and lactate dehydrogenase (LDH).
CCK-8 was used as a method for counting living cells by bonding 2-[2-methoxy-4-nitrophenyl]-3-[4-nitrophenyl]-5-[2,4-disulfophenyl]-2H-tetrazolium, monosodium salt (WST-8) with 1-methoxyphenazinium methylsulfate (PMS). […] Cell viability was evaluated by measuring absorbance at 450 nm. […] Cell viability was evaluated by measuring absorbance at 490 nm and reference absorbance at 690 nm. […]

[2] = tested on: β-amyloid; experiment: Expression levels of all types of Aβs in 3XTg-AD mice (western blotting); type: in vivo; settings: hippocampus and whole brain; vs control and Donepezil
Procedure: To test the efficacy of PEP1 on AD, AD transgenic mice (3XTg-AD) were purchased from Jackson Laboratory. Genetic characteristics of the transgenic mice are as follows: B6; 129-Psen1tm1Mpm Tg(APPSwe, tauP301L)1Lfa/Mmjax. […] One week after mice were confirmed as pregnant, new mice were delivered and weaned for 3 weeks. Two weeks later, mature mice were obtained.
During the preliminary breeding and the entire period of the experiment, a temperature was maintained at 23±2° C. and a relative humidity was maintained at 60±10%, and then the mice were raised under a 12-hour dark/light cycle. Experimental animals were divided into five groups, and each group included 10 animals. The divided experimental groups are as follows. […]
The PEP1, physiological saline, donepezil and scramble peptide were subcutaneously injected at each concentration three times a week for two months from the age of 12 months, and then two months after the injection, cognitive/memory behavior tests (passive avoidance test and Y maze test) were performed to examine a degree of improvement in cognitive function and memory function. After the brain was extracted to separate the hippocampus, the amounts of amyloid beta in the hippocampus and the whole brain, and the amounts of an amyloid beta oligomer and NFT generated by tau hyperphosphorylation were determined by western blotting and immunostaining. […]

[3] = tested on: neuronal apoptosis; experiment: Oxygen-glucose deprivation (OGD), in vitro model of ischemic stroke; type: cell-based

In the case of “EARPALLTSRLRFIPK (homo sapiens) [PEP1, hTERT-derived peptide consisting of 16 amino acids, telomerase location [611-626]]”, the “survival ability of NSCs” value ([1]; 20 μM Aβ25-35 + PEP1 up to 100 μM, vs 20 μM Aβ25-35 only, MTT, CCK-8, LDH) was “gradually increased”, the cell survival ability ([1]; NSCs, PEP1 alone 0-200 μM, CCK-8, up to 100 μM) was “not influenced” and the “expression levels of all types of Aβs” value [2] was “decreased”. The “neuronal apoptosis caused by oxygen-glucose deprivation (OGD)” value [3] was “inhibiting neuronal apoptosis”.

— patent US20180318383A1, “PEPTIDE HAVING NEURONAL LOSS PREVENTION AND REGENERATION EFFECTS, AND COMPOSITION CONTAINING SAME” (GEMVAX & KAEL CO., LTD., priority 2015, published 2018)
